Test results from patent US7514445B2, “Heteroaryl amines as glycogen synthase kinase 3β inhibitors (GSK3 inhibitors)” (Janssen Pharmaceutica N.V., priority 2001, dated 2009).

The compounds below were run against GSK3β (Homo sapiens, UniProt P49841) (assay: GSK3beta assay (SPA, phosphorylation of biotinylated phosphorylated CREB peptide, ATP-P33)). Settings: -log IC50 (M); 25° C., 19 nM GSK3β, 5 μM biotinylated phosphorylated CREB peptide, 1 μM ATP, one hour.
Type: biochemical
Procedure: GSK3beta assays were performed at 25° C. in a 100 μl reaction volume of 25 mM Tris (pH 7.4) containing 10 mM MgCl2, 1 mM DTT, 0.1 mg/ml BSA, 5% glycerol and containing 19 nM GSK3β, 5 μM biotinylated phosphorylated CREB peptide, 1 μM ATP, 2 nM ATP-P^33 and a suitable amount of a test compound of formula (I) or (I′). After one hour, the reaction was terminated by adding 70 μl of Stop mix (1 mM ATP, 18 mg/ml streptavidin coated PVT SPA bead pH 11.0). The beads to which the phosphorylated CREB peptide is attached were allowed to settle for 30 minutes and the radioactivity of the beads was counted in a microtiterplate scintillation counter and compared with the results obtained in a control experiment (without the presence of a test compound) in order to determine the percentage of GSK3β, inhibition. The IC50 value, i.e. the concentration (M) of the test compound at which 50% of GSK3, is inhibited, was calculated from the dose response curve obtained by performing the above-described GSK3β assay in the presence of different amounts of the test compound.
Table 5 lists pIC50 values (-log IC50 (M)) obtained in the above-described test for the present compounds.

GSK3β, sequence (P49841 whole entry, species assumed): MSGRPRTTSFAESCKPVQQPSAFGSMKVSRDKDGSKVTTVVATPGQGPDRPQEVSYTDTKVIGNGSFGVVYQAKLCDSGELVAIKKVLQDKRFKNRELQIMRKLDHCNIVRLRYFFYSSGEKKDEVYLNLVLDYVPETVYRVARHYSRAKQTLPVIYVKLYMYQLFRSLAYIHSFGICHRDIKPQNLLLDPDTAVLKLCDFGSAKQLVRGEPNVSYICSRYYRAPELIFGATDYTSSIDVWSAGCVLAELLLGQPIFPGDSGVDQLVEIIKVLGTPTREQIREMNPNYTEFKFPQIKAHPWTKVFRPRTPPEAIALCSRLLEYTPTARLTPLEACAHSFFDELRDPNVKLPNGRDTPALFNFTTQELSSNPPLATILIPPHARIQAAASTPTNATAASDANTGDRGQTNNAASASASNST

Row | SMILES | IC50
1 | Cc1cc(C)c(Nc2ccnc(Nc3ccc4[nH]ncc4c3)n2)c(C)c1 [Compound 2, N^2-(1H-indazol-5-yl)-N^4-(2,4,6-trimethylphenyl)-2,4-pyrimidinediamine] | 5.25e-07 M
2 | N#Cc1ccc(Nc2nccc(C(=O)N3CCNCC3)n2)cc1OCc1ccccc1 [Compound 4] | 2.95e-06 M
3 | Cn1ccnc1-c1ccnc(Nc2ccc(C#N)c(OCc3ccccc3)c2)n1 [Compound 6, 4-[[4-(1-methyl-1H-imidazol-2-yl)-2-pyrimidinyl]amino]-2-(phenylmethoxy)-benzonitrile] | 9.77e-08 M
4 | Cc1cc(C)c(Nc2ccnc(Nc3ccc4c(c3)OCO4)n2)c(C)c1 [Compound 17, N^2-benzo[1,3]dioxol-5-yl-N^4(2,4,6-trimethyl-phenyl)-2,4-pyrimidinediamine] | 5.01e-06 M
5 | Cc1cc(C)c(Nc2ccnc(Nc3ccc4ncccc4c3)n2)c(C)c1 [Compound 20, N^2-quinolin-6-yl-N-4-(2,4,6-trimethyl-phenyl)-2,4-pyrimidinediamine] | 3.63e-06 M

Next, values leading:

Row | IC50 | SMILES
6 | 1.82e-06 M | N#Cc1ccc(Nc2nccc(NCc3cccs3)n2)cc1 [Compound 22, 4-[4-[(thiophen-2-ylmethyl)-amino]-pyrimidin-2-ylamino]-benzonitrile]
7 | 4.37e-06 M | CC1(C)OCC(CNc2ccnc(Nc3ccc(C#N)cc3)n2)O1 (stereo not shown) [Compound 24]
8 | 1.91e-06 M | CCN1CCCC1CNc1ccnc(Nc2ccc(C#N)cc2)n1 (stereo not shown) [Compound 25]
9 | 1.55e-06 M | N#Cc1ccc(Nc2nccc(NCc3ccco3)n2)cc1 [Compound 26, 4-[4-[(furan-2-ylmethyl)-amino]-pyrimidin-2-ylamino]-benzonitrile]
10 | 7.76e-08 M | Cn1ccnc1-c1ccnc(Nc2ccc(C#N)cc2)n1 [Compound 33, 4-[[4-(1-methyl-1H-imidazol-2-yl)-2-pyrimidinyl]amino]-benzonitrile]
